Columns and labels:
[1] = test system: phospho-GCN2 (Thr899) in HCT116 colorectal cancer cells; experiment: HCT116 amino acid starved (-AA) phospho-GCN2 assay (Western blot); format: cell-based; settings: Homo sapiens, HCT-116, 4 h, read-out: HCT116-AA pGCN2 Western Blot
Method: (§1) HCT116 colorectal cancer cells (catalog #CCL-247) were obtained from the American Type Culture Collect (ATTC, Manassas, VA). Briefly, cells were grown in RPMI 1640 supplemented with 10% heat inactivated fetal bovine serum (Invitrogen, Carlsbad, CA) and 1% Penicillin/Streptomycin/L-Glutamine at 37° C., 5% CO2, and 95% humidity. Cells were expanded until reaching 70-95% confluency at which point they were subcultured or harvested for assay use. Cells were seeded in 12-well culture plate at five hundred thousand cells per well in 1 mL complete growth medium and incubated overnight at 37° C., 5% CO2, and 95% humidity. The next day each well was replaced with 1 mL Earle's Balanced Salt Solution (EBSS, Invitrogen, Carlsbad, CA) supplemented with 10% Dialyzed Fetal Bovine Serum, 5.5 mM Glucose, 1% Penicillin/Streptomycin and 1% Vitamin solution (thermo #11120052). A serial dilution of test compound was dispensed into well. Plates were incubated for 4 h at 37° C., 5% CO2, and 95% humidity. At the end of the incubation, cells were washed with PBS supplemented with 1× Halt protease inhibitor, 1× Halt phosphatase inhibitor, 1× Sigma phosphatase inhibitor cocktail 2 and 1×EDTA and then lysed with M-PER Mammalian Protein Extraction Reagent supplemented with 3× of the inhibitor mix as described above. Cell lysates were sonicated with water bath sonicator (Qsonica, Newtown, CT) and supernatants were boiled with SDS buffer and reducing agent. Western blot was performed on each lysate to quantify phospho-GCN2 (Thr899), total GCN2, ATF4 and beta-Actin. Membranes were imaged with LI-COR Odyssey CLx Imaging System (LI-COR, Lincoln, NE). Data were analyzed using GraphPad Prism software (GraphPad, San Diego, CA) to calculate IC50 values.

GCN2 kinase = GCN2 kinase (Homo sapiens (Human), UniProt Q9P2K8); experiment: Biochemical assay for GCN2 (TR-FRET kinase activity assay); settings: 1 mM ATP, 3-hour incubation
Sequence of GCN2 kinase (Q9P2K8 whole entry): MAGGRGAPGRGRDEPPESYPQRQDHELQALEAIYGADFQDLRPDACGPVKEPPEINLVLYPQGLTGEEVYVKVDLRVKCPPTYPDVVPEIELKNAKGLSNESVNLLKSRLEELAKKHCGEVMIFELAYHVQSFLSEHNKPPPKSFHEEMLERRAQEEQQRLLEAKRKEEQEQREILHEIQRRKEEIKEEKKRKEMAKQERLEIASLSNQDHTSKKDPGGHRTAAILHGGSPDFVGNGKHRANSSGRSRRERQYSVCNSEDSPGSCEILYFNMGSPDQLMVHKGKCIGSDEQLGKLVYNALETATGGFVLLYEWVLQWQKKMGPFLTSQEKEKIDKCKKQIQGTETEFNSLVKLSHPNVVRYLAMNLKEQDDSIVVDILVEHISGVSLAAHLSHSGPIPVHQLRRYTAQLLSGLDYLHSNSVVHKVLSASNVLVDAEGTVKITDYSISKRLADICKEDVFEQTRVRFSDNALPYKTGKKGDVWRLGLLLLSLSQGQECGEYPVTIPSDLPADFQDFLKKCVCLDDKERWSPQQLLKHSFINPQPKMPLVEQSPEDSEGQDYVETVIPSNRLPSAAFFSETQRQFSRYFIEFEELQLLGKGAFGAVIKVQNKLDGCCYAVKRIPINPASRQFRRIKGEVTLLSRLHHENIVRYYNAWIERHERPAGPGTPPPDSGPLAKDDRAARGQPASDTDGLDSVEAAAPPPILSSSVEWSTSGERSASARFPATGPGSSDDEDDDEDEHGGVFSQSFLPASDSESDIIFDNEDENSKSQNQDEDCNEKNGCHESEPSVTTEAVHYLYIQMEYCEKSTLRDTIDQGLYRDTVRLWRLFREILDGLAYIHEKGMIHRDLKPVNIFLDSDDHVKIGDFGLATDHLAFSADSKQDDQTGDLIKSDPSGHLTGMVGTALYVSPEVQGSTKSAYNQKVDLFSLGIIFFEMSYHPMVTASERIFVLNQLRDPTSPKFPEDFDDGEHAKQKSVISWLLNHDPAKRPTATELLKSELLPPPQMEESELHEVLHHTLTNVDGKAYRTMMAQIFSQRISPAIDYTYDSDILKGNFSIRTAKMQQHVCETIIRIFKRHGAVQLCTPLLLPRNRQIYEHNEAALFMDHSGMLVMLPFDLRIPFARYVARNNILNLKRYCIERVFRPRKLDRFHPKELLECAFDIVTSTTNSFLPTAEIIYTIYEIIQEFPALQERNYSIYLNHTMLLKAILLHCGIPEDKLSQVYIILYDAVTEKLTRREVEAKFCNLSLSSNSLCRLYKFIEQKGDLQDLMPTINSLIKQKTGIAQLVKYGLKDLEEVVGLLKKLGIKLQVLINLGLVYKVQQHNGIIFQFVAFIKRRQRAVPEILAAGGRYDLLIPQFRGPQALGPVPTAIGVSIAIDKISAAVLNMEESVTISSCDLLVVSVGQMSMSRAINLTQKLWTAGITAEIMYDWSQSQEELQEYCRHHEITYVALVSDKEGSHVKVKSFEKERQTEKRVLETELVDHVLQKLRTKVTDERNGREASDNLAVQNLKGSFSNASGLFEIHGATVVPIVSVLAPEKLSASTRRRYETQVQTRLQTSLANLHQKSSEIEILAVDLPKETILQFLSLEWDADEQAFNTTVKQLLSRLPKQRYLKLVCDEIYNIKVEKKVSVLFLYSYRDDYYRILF
Method: Activity of GCN2 kinase was determined using a TR-FRET kinase activity assay (e.g. Riddle et al. Analytical Biochemistry (2006) 356(1) 108-116). Assays were conducted in 384-well plates (13 μL assay volume) using 2 nM GCN2 (Carna Biosciences), 130 nM GFP-EIf2α (Invitrogen), 0.2 mg/mL E. coli tRNA (sigma) and 1 mM ATP in kinase buffer (Invitrogen). Inhibition of GCN2 was measured by adding serial diluted test compound (final assay concentration of 0.5% DMSO) followed by a 3-hour incubation. Tb-peIF2α (pSer52) antibody (Invitrogen) (2 nM final assay concentration) in kinase buffer containing ETDA (final assay concentration of 20 mM) was added. After a 60 min incubation at room temperature, TR-FRET was monitored using an excitation wavelength of 340 nm and emission wavelengths of 490 nm and 520 nm. The emission ratio (520/490) at each compound concentration of was converted to percent inhibition using controls (i.e. reaction with no test compound and reaction with a known inhibitor) and IC50 values were calculated by fitting a four-parameter sigmoidal curve to the data using Prism (GraphPad software).

[2] = test system: ATF4 in HCT116 colorectal cancer cells; experiment: HCT116 amino acid starved (-AA) ATF4 assay (Western blot); format: cell-based; settings: Homo sapiens, HCT-116, 4 h
Method: as §1

[3] = test system: ATF4 in CCRF-CEM leukemia cells (PERK); experiment: CCRF-CEM TG ATF4 ELISA, phenotypic assay for cellular inhibition of PERK preactivated by thapsigargin; format: cell-based; settings: Homo sapiens; Thapsigargin (1 μM) stimulated CCRF-CEM cells
Method: CCRF-CEM leukemia cells (catalog #CCL-116) were obtained from the American Type Culture Collection (ATTC, Manassas, VA). Briefly, cells were grown in RPMI-1640 medium supplemented with 10% heat-inactivated fetal bovine serum (Invitrogen, Carlsbad, CA) and 1% Penicillin/Streptomycin/L-Glutamine at 37° C., 5% CO2, and 95% humidity. Cells were expanded until reaching one million cells per mL at which time they were subcultured or harvested for assay use. One million five hundred thousand cells per well in 1 mL complete growth medium were dispensed into 12-well plates and incubated overnight. A serial dilution of test compound was added and cells were incubated at 37° C., 5% CO2, and 95% for three hours, then 1 μM thapsigargin was added and cells were incubated for an additional hour at 37° C., 5% CO2, and 95%. Cells were lysed then ATF4 levels were measured using an ELISA assay (Proteintech, Rosemont, IL). Absorbance was measured at 450 nm and 544 nM using a Synergy2 or equivalent reader (Biotek, Winooski VT). Data was analyzed using PRISM software (Graphpad, San Diego, CA) to calculate IC50 values.

CCRF-CEM leukemia cells = experiment: CCRF-CEM ASNase cell proliferation assay, phenotypic assay for cellular inhibition of GCN2; format: cell-based; settings: Homo sapiens; ASNase treated CCRF-CEM cells, 1 mU/mL ASNase, 72 h
Method: CCRF-CEM leukemia cells (catalog #CCL-116) were obtained from the American Type Culture Collect (ATTC, Manassas, VA). Cells were grown in RPMI-1640 medium supplemented with 10% heat-inactivated fetal bovine serum (Invitrogen, Carlsbad, CA) and 1% Penicillin/Streptomycin/L-Glutamine at 37° C., 5% CO2, and 95% humidity. Cells were expanded until reaching one million cells per mL at which time they are subcultured or harvested for assay use. Ten thousand cells per well in 200 μL RPMI-1640 supplemented with 10% heat-inactivated fetal bovine serum and 1% Penicillin/Streptomycin were dispensed into a 96-well black clear bottom plate. A serial dilution of test compound and 1 mU/mL ASNase was added in triplicate and plates were incubated for 72 h at 37° C., 5% CO2, and 95% humidity. At the end of the incubation, 40 μL of a […] solution of resazurin (Sigma, St. Louis, MO) in PBS was added to each well of the plate and plates were incubated for an additional 6 h at 37° C., 5% CO2, and 95% humidity. Plates were read on a Synergy2 or equivalent reader (Biotek, Winooski VT) using an excitation of 540 nm and an emission of 600 nm. Data was analyzed using GraphPad Prism software (GraphPad, San Diego, CA) to calculate IC50 values.

PERK kinase = PERK kinase (Homo sapiens (Human), UniProt Q9NZJ5); experiment: Biochemical assay for PERK (coupled pyruvate kinase/lactate dehydrogenase assay); settings: 1 mM ATP, rate from 2-3 h time frame
Sequence of PERK kinase (Q9NZJ5 other isoform, or with tags, fused parts or gaps): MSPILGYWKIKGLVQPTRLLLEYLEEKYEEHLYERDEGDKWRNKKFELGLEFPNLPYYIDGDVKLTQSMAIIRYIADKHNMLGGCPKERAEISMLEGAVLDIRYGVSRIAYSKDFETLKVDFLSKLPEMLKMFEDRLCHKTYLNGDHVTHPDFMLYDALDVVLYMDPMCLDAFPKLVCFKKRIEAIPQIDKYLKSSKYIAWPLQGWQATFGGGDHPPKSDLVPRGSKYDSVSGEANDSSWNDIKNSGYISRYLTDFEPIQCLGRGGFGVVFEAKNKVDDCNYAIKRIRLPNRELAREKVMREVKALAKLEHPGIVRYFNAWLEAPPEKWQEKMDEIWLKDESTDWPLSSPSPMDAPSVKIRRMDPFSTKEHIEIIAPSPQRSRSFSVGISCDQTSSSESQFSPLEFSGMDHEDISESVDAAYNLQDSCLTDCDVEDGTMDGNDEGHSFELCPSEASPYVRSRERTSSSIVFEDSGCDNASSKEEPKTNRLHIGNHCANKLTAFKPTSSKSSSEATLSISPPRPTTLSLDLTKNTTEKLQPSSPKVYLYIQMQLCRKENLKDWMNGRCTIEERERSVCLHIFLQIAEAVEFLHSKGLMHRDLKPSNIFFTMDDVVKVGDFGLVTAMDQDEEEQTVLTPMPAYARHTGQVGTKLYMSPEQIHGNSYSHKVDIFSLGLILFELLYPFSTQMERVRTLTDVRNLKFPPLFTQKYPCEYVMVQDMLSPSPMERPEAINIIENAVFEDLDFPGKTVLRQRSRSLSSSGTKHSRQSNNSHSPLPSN
Method: Activity of PERK kinase was determined spectroscopically using a coupled pyruvate kinase/lactate dehydrogenase assay that continuously monitors the ATP hydrolysis-dependent oxidation of NADH (e.g., Schindler et al. Science (2000) 289: 1938-1942). Assays were conducted in 384-well plates (100 μL final volume) using 10 nM PERK (from Beryllium), 0.25 mg/mL Myelin Basic Protein substrate, 1.5 units pyruvate kinase, 2.1 units lactate dehydrogenase, 1 mM phosphoenol pyruvate, 0.28 mM NADH and 1 mM ATP in assay buffer (100 mM Tris, pH 7.5, 15 mM MgCl2, 0.5 mM DTT, 0.004% (w/v) BSA, and 0.004% Triton X-100). Inhibition of PERK was measured by adding serial diluted test compound (final assay concentration of 1% DMSO). A decrease in absorption at 340 nm was monitored continuously for 6 hours at 30° C. on a multi-mode microplate reader (BioTek). The reaction rate was calculated using the 2-3 h time frame. The reaction rate at each concentration of compound was converted to percent inhibition using controls (i.e. reaction with no test compound and reaction with a known inhibitor) and IC50 values were calculated using software routines in Prism (GraphPad software).

Row | Compound | IC50 [1] [nM] | IC50 (GCN2 kinase) [nM] | IC50 [2] [nM] | IC50 [3] [nM] | IC50 (CCRF-CEM leukemia cells) [nM] | IC50 (PERK kinase) [nM]
1 | CNc1ncc2cc(-c3cccc(NS(=O)(=O)c4cc(Cl)cnc4OC)c3C#N)c(C)nc2n1 [Example 95] | ≤ 100 | ≤ 100 | 100 to 500 | 1000 to 10000 | 100 to 500 | 100 to 500
2 | CNc1ncc2cc(-c3cccc(NS(=O)(=O)c4cc(Cl)cnc4OC)c3OC)c(C)nc2n1 [Example 89] | ≤ 100 | 100 to 500 | 100 to 500 | 1000 to 10000 | 100 to 500 | ≤ 100
3 | CNc1ncc2cc(-c3cccc(NS(=O)(=O)c4cc(Cl)cnc4OC)c3)c(NC)nc2n1 [Example 15] | ≤ 100 | ≤ 100 | 100 to 500 | – | 100 to 500 | 100 to 500
4 | CNc1ncc2cc(-c3cc(F)cc(NS(=O)(=O)c4cc(Cl)cnc4OC)c3)c(C)nc2n1 [Example 65] | ≤ 100 | – | 100 to 500 | 1000 to 10000 | 100 to 500 | 100 to 500
5 | CNc1cc2nc(C)c(-c3ccc(F)c(NS(=O)(=O)c4cc(Cl)cc(CO)c4Cl)c3)cc2cn1 [Example 19] | ≤ 100 | ≤ 100 | ≤ 100 | 1000 to 10000 | 100 to 500 | ≤ 100
6 | CNc1ncc2cc(-c3cccc(NS(=O)(=O)c4cc(Cl)cnc4OC)c3F)c(C)nc2n1 [Example 3, 5-chloro-N-(2-fluoro-3-(7-methyl-2-(methylamino)pyrido[2,3-d]pyrimidin-6-yl)phenyl)-2-methoxypyridine-3-sulfonamide] | ≤ 100 | ≤ 100 | ≤ 100 | – | ≤ 100 | ≤ 100
7 | CNc1ncc2cc(-c3cc(NS(=O)(=O)c4cc(Cl)cnc4OC)ccc3C)cnc2n1 [Example 30] | ≤ 100 | ≤ 100 | ≤ 100 | 1000 to 10000 | ≤ 100 | 100 to 500
8 | CNc1ncc2cc(-c3c(F)ccc(NS(=O)(=O)c4cc(Cl)cnc4OC)c3F)c(C)nc2n1 [Example 27] | ≤ 100 | ≤ 100 | ≤ 100 | 1000 to 10000 | ≤ 100 | ≤ 100
9 | CNc1ncc2cc(-c3cccc(NS(=O)(=O)c4cc(Cl)c(OC)cc4Cl)c3F)c(NC)nc2n1 [Example 132] | ≤ 100 | ≤ 100 | ≤ 100 | 500 to 1000 | ≤ 100 | ≤ 100
10 | COc1ncc(Cl)cc1S(=O)(=O)Nc1cc(F)cc(-c2cc3cnc(Nc4cnn(C)c4)nc3nc2C)c1 [Example 87] | ≤ 100 | ≤ 100 | ≤ 100 | 1000 to 10000 | ≤ 100 | ≤ 100
11 | CNc1cc2nc(C)c(-c3cccc(NS(=O)(=O)c4cc(Cl)cnc4OC)c3Cl)cc2cn1 [Example 127] | ≤ 100 | ≤ 100 | ≤ 100 | 500 to 1000 | ≤ 100 | ≤ 100
12 | CNc1ncc2cc(-c3cccc(NS(=O)(=O)c4cc(Cl)cnc4NC)c3F)c(C)nc2n1 [Example 90] | ≤ 100 | ≤ 100 | ≤ 100 | 1000 to 10000 | ≤ 100 | ≤ 100
13 | CNc1cc2nc(C)c(-c3cc(F)cc(NS(=O)(=O)c4cc(Cl)cnc4OC)c3)cc2cn1 [Example 23] | ≤ 100 | ≤ 100 | ≤ 100 | 1000 to 10000 | 100 to 500 | ≤ 100
14 | CNc1ncc2cc(-c3cccc(NS(=O)(=O)c4cc(Cl)cnc4OC)c3Cl)ccc2n1 [Example 62] | ≤ 100 | ≤ 100 | 100 to 500 | 1000 to 10000 | ≤ 100 | ≤ 100
15 | CNc1nc2nc(NC3CC3)ncc2cc1-c1cccc(NS(=O)(=O)c2cc(Cl)cnc2OC)c1F [Example 111] | 100 to 500 | ≤ 100 | ≤ 100 | 1000 to 10000 | 100 to 500 | 100 to 500
16 | CNc1ncc2cc(-c3cccc(NS(=O)(=O)c4cc(Cl)cnc4OC)c3F)c(OC)nc2n1 [Example 66] | ≤ 100 | ≤ 100 | ≤ 100 | 1000 to 10000 | ≤ 100 | ≤ 100
17 | CNc1ncc2cc(-c3cccc(NS(=O)(=O)c4cc(Cl)cnc4NC)c3F)ccc2n1 [Example 50] | ≤ 100 | ≤ 100 | ≤ 100 | 1000 to 10000 | ≤ 100 | ≤ 100
18 | CNc1ncc2cc(-c3cc(NS(=O)(=O)c4cc(Cl)cnc4OC)ccc3F)c(C)nc2n1 [Example 38] | ≤ 100 | ≤ 100 | 100 to 500 | 1000 to 10000 | 100 to 500 | 100 to 500
19 | CNc1ncc2cc(-c3cccc(NS(=O)(=O)c4cc(F)cc(CO)c4Cl)c3F)c(NC)nc2n1 [Example 177] | – | ≤ 100 | – | 100 to 500 | ≤ 100 | 100 to 500
20 | CNc1ncc2cc(-c3cccc(NS(=O)(=O)c4cc(Cl)cc(CO)c4F)c3F)c(NC)nc2n1 [Example 176] | – | ≤ 100 | – | 1000 to 10000 | ≤ 100 | ≤ 100

Source: patent US11912668B2, “GCN2 and perk kinase inhibitors and methods of use thereof” (Deciphera Pharmaceuticals, LLC, priority 2020, dated 2024)
